Measurements taken from PubChem BioAssay AID256 (DTP/NCI, 2004).
Toxic doses and inconclusive results are not listed. Rule for the calls: active = survival T/C of 150% or more; inactive = T/C below 125% in these data.

Tested on: CD2F1 mice, L1210 leukemia ip, survival T/C
Experiment: NCI In Vivo Anticancer Drug Screen. Data for tumor model L1210 Leukemia (intraperitoneal) in CD2F1 (CDF1) mice
Details: higher = longer survival
In short: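 Compound-dosed mice with transplantable tumor versus matched vehicle controls; endpoint ratio T/C reported.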

[1] = endpoint: mean survival time, dose: 100.0 mg/kg/injection, schedule: Q04DX003 (ip), vehicle: saline with Tween-80
[2] = endpoint: mean survival time, dose: 200.0 mg/kg/injection, schedule: Q04DX003 (ip), vehicle: saline with Tween-80
[3] = endpoint: mean survival time, dose: 50.0 mg/kg/injection, schedule: Q01DX009 (ip), vehicle: saline with Tween-80
[4] = endpoint: mean survival time, dose: 100.0 mg/kg/injection, schedule: Q01DX009 (ip), vehicle: saline with Tween-80
[5] = endpoint: mean survival time, dose: 75.0 mg/kg/injection, schedule: Q01DX001 (ip), vehicle: other
[6] = endpoint: mean survival time, dose: 150.0 mg/kg/injection, schedule: Q01DX001 (ip), vehicle: other
[7] = endpoint: mean survival time, dose: 400.0 mg/kg/injection, schedule: Q04DX003 (ip), vehicle: saline with Tween-80
[8] = endpoint: mean survival time, dose: 100.0 mg/kg/injection, schedule: Q04DX003 (ip), vehicle: other
[9] = endpoint: mean survival time, dose: 200.0 mg/kg/injection, schedule: Q01DX009 (ip), vehicle: saline with Tween-80
[10] = endpoint: mean survival time, dose: 50.0 mg/kg/injection, schedule: Q04DX002 (ip), vehicle: saline with Tween-80
[11] = endpoint: mean survival time, dose: 100.0 mg/kg/injection, schedule: Q01DX009 (ip), vehicle: Klucel (hydroxypropylcellulose) (HPC)
[12] = endpoint: mean survival time, dose: 200.0 mg/kg/injection, schedule: Q01DX009 (ip), vehicle: Klucel (hydroxypropylcellulose) (HPC)
[13] = endpoint: mean survival time, dose: 400.0 mg/kg/injection, schedule: Q01DX009 (ip), vehicle: saline with Tween-80
[14] = endpoint: mean survival time, dose: 50.0 mg/kg/injection, schedule: Q01DX009 (ip), vehicle: Klucel (hydroxypropylcellulose) (HPC)
[15] = endpoint: mean survival time, dose: 12.5 mg/kg/injection, schedule: Q01DX009 (ip), vehicle: saline
[16] = endpoint: mean survival time, dose: 25.0 mg/kg/injection, schedule: Q01DX009 (ip), vehicle: saline
[17] = endpoint: mean survival time, dose: 100.0 mg/kg/injection, schedule: Q04DX002 (ip), vehicle: saline with Tween-80
[18] = endpoint: mean survival time, dose: 200.0 mg/kg/injection, schedule: Q04DX002 (ip), vehicle: saline with Tween-80

Measured: T/C

Nc1ncc(C(=O)c2ccccc2)cc1[N+](=O)[O-]
inactive: [1] 96 % of control | [2] 96 % of control

COc1ccc2[nH]cc(CN(C)C)c2c1
inactive: endpoint: mean survival time, dose: 25.0 mg/kg/injection, schedule: Q01DX009 (ip), vehicle: saline with Tween-80 100 % of control | endpoint: mean survival time, dose: 33.0 mg/kg/injection, schedule: Q01DX009 (ip), vehicle: saline with Tween-80 101 % of control | [3] 106 % of control | [4] 105 % of control | [1] 88 % of control

CSC(=O)C(=O)SC
inactive: endpoint: mean survival time, dose: 50.0 mg/kg/injection, schedule: Q01DX001 (ip), vehicle: saline with Tween-80 100 % of control | endpoint: mean survival time, dose: 100.0 mg/kg/injection, schedule: Q01DX001 (ip), vehicle: saline with Tween-80 108 % of control

c1ccc2sc(NN=c3c4ccccc4sc4ccccc34)nc2c1
inactive: [5] 107 % of control | [6] 100 % of control | endpoint: mean survival time, dose: 300.0 mg/kg/injection, schedule: Q01DX001 (ip), vehicle: other 94 % of control

CCOc1ccc(/C=C(/C#N)C(N)=O)cc1
inactive: endpoint: mean survival time, dose: 50.0 mg/kg/injection, schedule: Q04DX003 (ip), vehicle: saline with Tween-80 97 % of control | [1] 94 % of control | [2] 92 % of control

O=c1oc(/C=C/c2ccccc2)nc2cc(Cl)ccc12
inactive: [1] 94 % of control | [2] 92 % of control | [7] 97 % of control

Cc1ccc(CSCc2ccc(C)cc2)cc1
inactive: [8] 100 % of control | endpoint: mean survival time, dose: 200.0 mg/kg/injection, schedule: Q04DX003 (ip), vehicle: other 107 % of control | endpoint: mean survival time, dose: 400.0 mg/kg/injection, schedule: Q04DX003 (ip), vehicle: other 97 % of control

O=C(NCCBr)Nc1ccccc1
inactive: endpoint: mean survival time, dose: 12.5 mg/kg/injection, schedule: Q04DX002 (ip), vehicle: Klucel (hydroxypropylcellulose) (HPC) 92 % of control | endpoint: mean survival time, dose: 25.0 mg/kg/injection, schedule: Q04DX002 (ip), vehicle: Klucel (hydroxypropylcellulose) (HPC) 92 % of control | endpoint: mean survival time, dose: 50.0 mg/kg/injection, schedule: Q04DX002 (ip), vehicle: Klucel (hydroxypropylcellulose) (HPC) 96 % of control

CNC(=O)Nc1nccs1
inactive: [3] 105 % of control | [4] 106 % of control | [9] 97 % of control

Clc1ccc(CC[PH+]2CC=CC2)cc1.Clc1ccc(CC[PH+]2CC=CC2)cc1.[Cl][Ni][Cl]
inactive: endpoint: mean survival time, dose: 12.5 mg/kg/injection, schedule: Q01DX009 (ip), vehicle: DMSO 101 % of control | endpoint: mean survival time, dose: 25.0 mg/kg/injection, schedule: Q01DX009 (ip), vehicle: DMSO 101 % of control | endpoint: mean survival time, dose: 25.0 mg/kg/injection, schedule: Q04DX002 (ip), vehicle: saline with Tween-80 91 % of control | [10] 95 % of control

O=C(NCCF)NC1CCSc2ccccc21 (configuration not stated)
inactive: [5] 101 % of control | [6] 103 % of control

O=C(N/N=C/c1ccccc1)c1ccc(Cl)c(Cl)c1
inactive: [11] 105 % of control | [12] 101 % of control | endpoint: mean survival time, dose: 400.0 mg/kg/injection, schedule: Q01DX009 (ip), vehicle: Klucel (hydroxypropylcellulose) (HPC) 101 % of control

Oc1ccccc1C=Nc1ccccc1.Oc1ccccc1C=Nc1ccccc1.[Co]
inactive: [8] 92 % of control

O=C(Nc1cc(C(F)(F)F)ccc1Cl)c1ccccc1Cl
inactive: [4] 104 % of control | [1] 103 % of control | [9] 94 % of control | [2] 103 % of control | [13] 104 % of control | [7] 101 % of control

CCCCCCCCC(=O)c1ccc(N=Nc2ccc(OCC)cc2)cc1
inactive: [1] 94 % of control | [2] 91 % of control | [7] 89 % of control

O=C1C=CC(O)CCC1 (configuration not stated) (tested in a mixture with another compound)
inactive: [1] 101 % of control | [2] 101 % of control | [7] 97 % of control

N#Cc1cnc(N)[nH]c1=O
inactive: [14] 88 % of control | [11] 88 % of control | [12] 91 % of control

Nc1ncc(N)c(N)n1
inactive: endpoint: mean survival time, dose: 250.0 mg/kg/injection, schedule: Q04DX003 (ip), vehicle: saline sonified 102 % of control | endpoint: mean survival time, dose: 500.0 mg/kg/injection, schedule: Q04DX003 (ip), vehicle: saline sonified 98 % of control | endpoint: mean survival time, dose: 1000.0 mg/kg/injection, schedule: Q04DX003 (ip), vehicle: saline sonified 103 % of control

Cc1ccccc1NC(=O)c1cc2ccccc2cc1O
inactive: [4] 91 % of control | [1] 102 % of control | [9] 94 % of control | [2] 89 % of control | [13] 94 % of control | [7] 91 % of control

NC(CO)CO
inactive: endpoint: mean survival time, dose: 100.0 mg/kg/injection, schedule: Q04DX003 (ip), vehicle: saline 98 % of control | endpoint: mean survival time, dose: 200.0 mg/kg/injection, schedule: Q04DX003 (ip), vehicle: saline 95 % of control | endpoint: mean survival time, dose: 400.0 mg/kg/injection, schedule: Q04DX003 (ip), vehicle: saline 98 % of control

CC(=O)ON1C(=O)C=CC1=O
inactive: endpoint: mean survival time, dose: 25.0 mg/kg/injection, schedule: Q01DX009 (ip), vehicle: Klucel (hydroxypropylcellulose) (HPC) 95 % of control | [14] 90 % of control

O=[N+]([O-])c1nccn1CC(O)CO (configuration not stated)
inactive: [15] 102 % of control | [16] 105 % of control | endpoint: mean survival time, dose: 50.0 mg/kg/injection, schedule: Q01DX009 (ip), vehicle: saline 102 % of control | endpoint: mean survival time, dose: 100.0 mg/kg/injection, schedule: Q01DX009 (ip), vehicle: saline 101 % of control | endpoint: mean survival time, dose: 200.0 mg/kg/injection, schedule: Q01DX009 (ip), vehicle: saline 102 % of control | endpoint: mean survival time, dose: 400.0 mg/kg/injection, schedule: Q01DX009 (ip), vehicle: saline 103 % of control

COc1ccc(P(=S)(S)c2ccc(OC)cc2)cc1
inactive: endpoint: mean survival time, dose: 80.5 mg/kg/injection, schedule: Q01DX009 (ip), vehicle: saline with Tween-80 95 % of control | endpoint: mean survival time, dose: 161.0 mg/kg/injection, schedule: Q01DX009 (ip), vehicle: saline with Tween-80 93 % of control | endpoint: mean survival time, dose: 322.0 mg/kg/injection, schedule: Q01DX009 (ip), vehicle: saline with Tween-80 93 % of control

O=C(CC(=O)Oc1ccc(Cl)cc1Cl)Oc1ccc(Cl)cc1Cl
inactive: [1] 97 % of control | [2] 101 % of control | [7] 95 % of control

O=c1[nH]c(=S)c(SCc2ccccc2)nn1C1OC(COP(=O)(O)O)C(O)C1O (configuration not stated)
inactive: endpoint: median survival time, dose: 5.63 mg/kg/injection, schedule: Q01DX005 (ip), vehicle: water 98 % of control | endpoint: median survival time, dose: 11.25 mg/kg/injection, schedule: Q01DX005 (ip), vehicle: water 98 % of control | endpoint: median survival time, dose: 22.5 mg/kg/injection, schedule: Q01DX005 (ip), vehicle: water 102 % of control | endpoint: median survival time, dose: 45.0 mg/kg/injection, schedule: Q01DX005 (ip), vehicle: water 105 % of control | endpoint: median survival time, dose: 90.0 mg/kg/injection, schedule: Q01DX005 (ip), vehicle: water 103 % of control

CCC12C=CC(OC)(CC1)C(C#N)C2 (configuration not stated)
inactive: [10] 103 % of control | [17] 100 % of control | [18] 91 % of control

CCOc1ccccc1N1C(=O)CSC1=S
inactive: endpoint: mean survival time, dose: 25.0 mg/kg/injection, schedule: Q04DX002 (ip), vehicle: other 93 % of control | endpoint: mean survival time, dose: 50.0 mg/kg/injection, schedule: Q04DX002 (ip), vehicle: other 93 % of control | endpoint: mean survival time, dose: 100.0 mg/kg/injection, schedule: Q04DX002 (ip), vehicle: other 89 % of control | endpoint: mean survival time, dose: 200.0 mg/kg/injection, schedule: Q04DX002 (ip), vehicle: other 101 % of control

COc1cc(C)c(NC(C)=O)c([N+](=O)[O-])c1
inactive: endpoint: mean survival time, dose: 75.0 mg/kg/injection, schedule: Q01DX001 (ip), vehicle: saline 100 % of control | endpoint: mean survival time, dose: 150.0 mg/kg/injection, schedule: Q01DX001 (ip), vehicle: saline 95 % of control | endpoint: mean survival time, dose: 300.0 mg/kg/injection, schedule: Q01DX001 (ip), vehicle: saline 95 % of control

CC(=O)NCCSSCCNC(C)=O
inactive: [10] 91 % of control | [17] 95 % of control | [18] 88 % of control | endpoint: mean survival time, dose: 400.0 mg/kg/injection, schedule: Q04DX002 (ip), vehicle: saline with Tween-80 109 % of control

CCOC(=O)N1CCc2nc3ccccc3cc21
inactive: endpoint: mean survival time, dose: 50.0 mg/kg/injection, schedule: Q01DX001 (ip), vehicle: other 106 % of control | endpoint: mean survival time, dose: 100.0 mg/kg/injection, schedule: Q01DX001 (ip), vehicle: other 109 % of control | endpoint: mean survival time, dose: 200.0 mg/kg/injection, schedule: Q01DX001 (ip), vehicle: other 97 % of control

CCOP(=O)(OCC)OC(C)C#N (configuration not stated)
inactive: [15] 97 % of control | [16] 97 % of control
